These results are taken from US10669290B2, “Beta-lactamase inhibitors” (priority 2012, dated 2020).

What all share (assay type): cell-based
One assay concerns K.P. A-1797 KPC-2 VIM-4. The assay is described as follows: Broth microdilution MIC, K. pneumoniae A-1797. The note with it: Klebsiella pneumoniae; fixed meropenem 4 μg/mL, CAMHB, 16-20 hours 37° C.; read-out: MIC of exemplary compounds in presence of fixed β-lactams, Fixed Mero, K.P. A-1797 KPC-2 VIM-4. (In broth dilution the organism is exposed to a series of concentrations in liquid medium.)

A further assay deals with E. cl 144200 p99 AmpC. The assay is described as follows: Broth microdilution MIC, E. cloacae 144200. The conditions noted are these: Enterobacter cloacae; fixed ceftazidime 4 μg/mL, CAMHB, 16-20 hours 37° C.; read-out: MIC of exemplary compounds in presence of fixed β-lactams, Fixed CAZ, E. cl 144200 p99 AmpC. In a few lines: (§1)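 CAMHB; compound 32–0.25 μg/mL, 2-fold dilutions; β-lactam partner static at 4 μg/ml; CLSI inoculum from 3-5 h culture; 16-20 h, 37° C; visual MIC.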

The test system of a further assay is S. aureus MSSA-7 PC-1. Description: Broth microdilution MIC, S. aureus MSSA-7. The note with it: Staphylococcus aureus, fixed piperacillin 4 μg/mL, CAMHB, 16-20 hours 37° C., read-out: MIC of exemplary compounds in presence of fixed β-lactams, Fixed Pip, S. aureus MSSA-7 PC-1.
A further assay has as its system P. aerug. Ps296 VIM-2. The assay is described as follows: Broth microdilution MIC, P. aeruginosa Ps296. The note with it: Pseudomonas aeruginosa; fixed meropenem 4 μg/mL, CAMHB, 16-20 hours 37° C.; read-out: MIC of exemplary compounds in presence of fixed β-lactams, Fixed Mero, P. aerug. Ps296 VIM-2. The essentials:
as §1

The subject of the next assay is K.P. 156319 KPC-3. Description: Broth microdilution MIC, K. pneumoniae 156319. The note with it: Klebsiella pneumoniae; fixed meropenem 4 μg/mL, CAMHB, 16-20 hours 37° C.; read-out: MIC of exemplary compounds in presence of fixed β-lactams, Fixed Mero, K.P. 156319 KPC-3.
For another assay, the system named is E. coli ESBL4 CTX-M-15. Description: Broth microdilution MIC, E. coli ESBL4. The conditions noted are these: Escherichia coli, ESBL4CTXM15; fixed ceftazidime 4 μg/mL, CAMHB, 16-20 hours 37° C.; read-out: MIC of exemplary compounds in presence of fixed β-lactams, Fixed CAZ, E. coli ESBL4 CTX-M-15. In a few lines: as §1

In general, MIC refers to the lowest concentration found to suppress growth. For the compound `N=CN[C@H]1CC[C@H](CC(=O)N[C@H]2Cc3cccc(C(=O)O)c3OB2O)CC1` [Example 30, (R)-3-(2-(trans-4-formimidamidocyclohexyl)acetamido)-2-hydroxy-3,4-dihydro-2H-benzo[e][1,2]oxaborinine-8-carboxylic acid], the MIC in the assay on K.P. A-1797 KPC-2 VIM-4 was 8 to 32 µg/mL; in the assay with E. cl 144200 p99 AmpC it was < 4 µg/mL; in the assay with S. aureus MSSA-7 PC-1, < 4 µg/mL; with P. aerug. Ps296 VIM-2 it was 8 to 32 µg/mL; with K.P. 156319 KPC-3 it was < 4 µg/mL; in the assay on E. coli ESBL4 CTX-M-15 it was < 4 µg/mL.

As to `CN1CCN([C@H]2CC[C@H](CC(=O)N[C@H]3Cc4cccc(C(=O)O)c4OB3O)CC2)C1=N` [Example 52, (R)-2-hydroxy-3-(2-(trans-4-(2-imino-3-methylimidazolidin-1-yl)cyclohexyl)acetamido)-3,4-dihydro-2H-benzo[e][1,2]oxaborinine-8-carboxylic acid], the MIC with K.P. A-1797 KPC-2 VIM-4 was > 32 µg/mL; with E. cl 144200 p99 AmpC, < 4 µg/mL; in the assay on S. aureus MSSA-7 PC-1, < 4 µg/mL; in the assay on P. aerug. Ps296 VIM-2, > 32 µg/mL; in the assay with K.P. 156319 KPC-3 it was 8 to 32 µg/mL; with E. coli ESBL4 CTX-M-15 it was < 4 µg/mL.

Turning to `O=C(C[C@H]1CC[C@H](NCc2ccccn2)CC1)N[C@H]1Cc2cccc(C(=O)O)c2OB1O` [Example 32, (R)-2-hydroxy-3-(2-(trans-4-(pyridin-2-ylmethylamino)cyclohexyl)acetamido)-3,4-dihydro-2H-benzo[e][1,2]oxaborinine-8-carboxylic acid], the MIC in the assay on K.P. A-1797 KPC-2 VIM-4 was > 32 µg/mL; in the assay on E. cl 144200 p99 AmpC, < 4 µg/mL; in the assay with S. aureus MSSA-7 PC-1, < 4 µg/mL; with P. aerug. Ps296 VIM-2 it was 8 to 32 µg/mL; in the assay on K.P. 156319 KPC-3, < 4 µg/mL; in the assay with E. coli ESBL4 CTX-M-15 it was < 4 µg/mL.

Regarding `N[C@H]1CC[C@H](C(=O)N[C@H]2Cc3cccc(C(=O)O)c3OB2O)CC1` [Example 2, (R)-3-(trans-4-aminocyclohexanecarboxamido)-2-hydroxy-3,4-dihydro-2H-benzol[e][1,2]oxaborinine-8-carboxylic acid], the minimal inhibitory concentration (MIC) in the assay on K.P. A-1797 KPC-2 VIM-4 is < 4 µg/mL; in the assay on E. cl 144200 p99 AmpC it was < 4 µg/mL; in the assay on S. aureus MSSA-7 PC-1 it was 8 to 32 µg/mL; with P. aerug. Ps296 VIM-2 it was < 4 µg/mL; in the assay with K.P. 156319 KPC-3, < 4 µg/mL; in the assay with E. coli ESBL4 CTX-M-15, < 4 µg/mL.

For `NCCN[C@H]1CC[C@H](CC(=O)N[C@H]2Cc3cccc(C(=O)O)c3OB2O)CC1` [Example 15, (R)-3-(2-(trans-4-(2-aminoethylamino)cyclohexyl)acetamido)-2-hydroxy-3,4-dihydro-2H-benzo[e][1,2]oxaborinine-8-carboxylic acid], the MIC with K.P. A-1797 KPC-2 VIM-4, in the assay with E. cl 144200 p99 AmpC, in the assay on S. aureus MSSA-7 PC-1, in the assay on P. aerug. Ps296 VIM-2, in the assay on K.P. 156319 KPC-3 and with E. coli ESBL4 CTX-M-15 was < 4 µg/mL in each case.

`CNCCN[C@H]1CC[C@H](CC(=O)N[C@H]2Cc3cccc(C(=O)O)c3OB2O)CC1` [Example 51, (R)-2-hydroxy-3-(2-(trans-4-(2-(methylamino)ethylamino)cyclohexyl)acetamido)-3,4-dihydro-2H-benzol[e][1,2]oxaborinine-8-carboxylic acid]: the MIC in the assay on K.P. A-1797 KPC-2 VIM-4, in the assay with E. cl 144200 p99 AmpC, with S. aureus MSSA-7 PC-1, in the assay with P. aerug. Ps296 VIM-2, with K.P. 156319 KPC-3 and in the assay on E. coli ESBL4 CTX-M-15 was < 4 µg/mL throughout.

As to `CN(CCN)[C@H]1CC[C@H](CC(=O)N[C@H]2Cc3cccc(C(=O)O)c3OB2O)CC1` [Example 63, (R)-3-(2-(trans-4-((2-aminoethyl)(methyl)amino)cyclohexyl)acetamido)-2-hydroxy-3,4-dihydro-2H-benzo[e][1,2]oxaborinine-8-carboxylic acid], the minimal inhibitory concentration (MIC) with K.P. A-1797 KPC-2 VIM-4, in the assay on E. cl 144200 p99 AmpC, with S. aureus MSSA-7 PC-1, in the assay with P. aerug. Ps296 VIM-2, in the assay with K.P. 156319 KPC-3 and in the assay on E. coli ESBL4 CTX-M-15 was < 4 µg/mL in each case.

As for `O=C(C[C@H]1CC[C@@H](N2CCNCC2)CC1)N[C@H]1Cc2cccc(C(=O)O)c2OB1O` [Example 17, (R)-2-hydroxy-3-(2-(cis-4-(piperazin-1-yl)cyclohexyl)acetamido)-3,4-dihydro-2H-benzo[e][1,2]oxaborinine-8-carboxylic acid], the MIC in the assay on K.P. A-1797 KPC-2 VIM-4 is > 32 µg/mL; with E. cl 144200 p99 AmpC, < 4 µg/mL; in the assay on S. aureus MSSA-7 PC-1 it was < 4 µg/mL; in the assay with P. aerug. Ps296 VIM-2, > 32 µg/mL; in the assay on K.P. 156319 KPC-3, < 4 µg/mL; in the assay with E. coli ESBL4 CTX-M-15 it was < 4 µg/mL.

Take `NCCNC1CCC(O)(CC(=O)N[C@H]2Cc3cccc(C(=O)O)c3OB2O)CC1` (stereo partly drawn) [Example 43, 3-{2-[4-(2-Amino-ethylamino)-1-hydroxy-cyclohexyl]-acetylamino}-2-hydroxy-3,4-dihydro-2H-benzo[e][1,2]oxaborinine-8-carboxylic acid]: the MIC was > 32 µg/mL in the assay on K.P. A-1797 KPC-2 VIM-4; < 4 µg/mL with E. cl 144200 p99 AmpC; < 4 µg/mL with S. aureus MSSA-7 PC-1; < 4 µg/mL with P. aerug. Ps296 VIM-2; < 4 µg/mL in the assay with K.P. 156319 KPC-3; < 4 µg/mL with E. coli ESBL4 CTX-M-15.

For `CSCCN[C@H]1CC[C@H](CC(=O)N[C@H]2Cc3cccc(C(=O)O)c3OB2O)CC1` [Example 66, (R)-2-hydroxy-3-(2-(trans-4-(2-(methylthio)ethylamino)cyclohexyl)acetamido)-3,4-dihydro-2H-benzo[e][1,2]oxaborinine-8-carboxylic acid], the MIC in the assay on K.P. A-1797 KPC-2 VIM-4 is 8 to 32 µg/mL; in the assay with E. cl 144200 p99 AmpC, < 4 µg/mL; in the assay with S. aureus MSSA-7 PC-1, < 4 µg/mL; in the assay with P. aerug. Ps296 VIM-2, 8 to 32 µg/mL; in the assay with K.P. 156319 KPC-3 it was < 4 µg/mL; in the assay with E. coli ESBL4 CTX-M-15, < 4 µg/mL.

In the case of `NCCN[C@H]1CC[C@@H](CC(=O)N[C@H]2Cc3cccc(C(=O)O)c3OB2O)CC1` [Example 46, (R)-3-(2-(cis-4-(2-aminoethylamino)cyclohexyl)acetamido)-2-hydroxy-3,4-dihydro-2H-benzo[e][1,2]oxaborinine-8-carboxylic acid], the MIC in the assay with K.P. A-1797 KPC-2 VIM-4, with E. cl 144200 p99 AmpC, with S. aureus MSSA-7 PC-1, with P. aerug. Ps296 VIM-2, in the assay on K.P. 156319 KPC-3 and in the assay with E. coli ESBL4 CTX-M-15 was < 4 µg/mL each time.

As for `NC[C@H]1CC[C@H](C(=O)N[C@H]2Cc3cccc(C(=O)O)c3OB2O)CC1` [Example 1, (R)-3-(trans-4-(aminomethyl)cyclohexanecarboxamido)-2-hydroxy-3,4-dihydro-2H-benzo[e][1,2]oxaborinine-8-carboxylic acid], the MIC with K.P. A-1797 KPC-2 VIM-4 is < 4 µg/mL; in the assay with E. cl 144200 p99 AmpC, < 4 µg/mL; in the assay on S. aureus MSSA-7 PC-1, 8 to 32 µg/mL; in the assay on P. aerug. Ps296 VIM-2, < 4 µg/mL; in the assay with K.P. 156319 KPC-3 it was < 4 µg/mL; in the assay on E. coli ESBL4 CTX-M-15 it was < 4 µg/mL.

Take `NCC(N)[C@H]1CC[C@H](CC(=O)N[C@H]2Cc3cccc(C(=O)O)c3OB2O)CC1` (stereo partly drawn) [Example 77, (R)-3-(2-(trans-4-(1,2-diaminoethyl)cyclohexyl)acetamido)-2-hydroxy-3,4-dihydro-2H-benzo[e][1,2]oxaborinine-8-carboxylic acid]: the MIC with K.P. A-1797 KPC-2 VIM-4 was 8 to 32 µg/mL; with E. cl 144200 p99 AmpC, < 4 µg/mL; with S. aureus MSSA-7 PC-1 it was < 4 µg/mL; with P. aerug. Ps296 VIM-2 it was < 4 µg/mL; in the assay on K.P. 156319 KPC-3 it was < 4 µg/mL; in the assay with E. coli ESBL4 CTX-M-15, < 4 µg/mL.

Regarding `C[C@H](N)CN[C@H]1CC[C@H](CC(=O)N[C@H]2Cc3cccc(C(=O)O)c3OB2O)CC1` [Example 53, (R)-3-(2-(trans-4-((S)-2-aminopropylamino)cyclohexyl)acetamido)-2-hydroxy-3,4-dihydro-2H-benzo[e][1,2]oxaborinine-8-carboxylic acid], the MIC in the assay with K.P. A-1797 KPC-2 VIM-4, in the assay on E. cl 144200 p99 AmpC, in the assay with S. aureus MSSA-7 PC-1, with P. aerug. Ps296 VIM-2, in the assay on K.P. 156319 KPC-3 and with E. coli ESBL4 CTX-M-15 was < 4 µg/mL throughout.

`NCC(=O)N[C@H]1CC[C@H](CC(=O)N[C@H]2Cc3cccc(C(=O)O)c3OB2O)CC1` [Example 68, (R)-3-(2-(trans-4-(2-aminoacetamido)cyclohexyl)acetamido)-2-hydroxy-3,4-dihydro-2H-benzol[e][1,2]oxaborinine-8-carboxylic acid]: the MIC in the assay with K.P. A-1797 KPC-2 VIM-4 is 8 to 32 µg/mL; with E. cl 144200 p99 AmpC, < 4 µg/mL; with S. aureus MSSA-7 PC-1, < 4 µg/mL; in the assay on P. aerug. Ps296 VIM-2, 8 to 32 µg/mL; with K.P. 156319 KPC-3, < 4 µg/mL; in the assay with E. coli ESBL4 CTX-M-15, < 4 µg/mL.

Turning to `NCCNC(=O)NC1CC(CC(=O)N[C@H]2Cc3cccc(C(=O)O)c3OB2O)C1` (stereo partly drawn) [Example 58, (R)-3-(2-(3-(3-(2-aminoethyl)ureido)cyclobutyl)acetamido)-2-hydroxy-3,4-dihydro-2H-benzo[e][1,2]oxaborinine-8-carboxylic acid], the MIC with K.P. A-1797 KPC-2 VIM-4, in the assay on E. cl 144200 p99 AmpC, with S. aureus MSSA-7 PC-1, in the assay on P. aerug. Ps296 VIM-2, in the assay with K.P. 156319 KPC-3 and with E. coli ESBL4 CTX-M-15 was < 4 µg/mL throughout.
